# Entries after “also recorded” stand apart in the source; their conditions may differ.
# Tested on: proteins that co-immunoprecipitated with DUX4-CTD constructs expressed in MB135 myoblasts
# Test: LC-MS of proteins co-immunoprecipitated with DUX4-CTD (Table 1) and western validation
# Format: binding, human
# Conditions: LC-MS of co-IP; western validation with MB135-iDUXB as control; listed as DUX4-CTD
# Description: As an unbiased method to identify proteins that interact with the C-terminal region of DUX4, liquid chromatography mass spectroscopy (LC-MS) was used to identify proteins that co-immunoprecipitated with DUX4-CTD constructs expressed in MB135 myoblasts. In the first experiment, MB135iDUX4-CTD cells were used, either untreated, treated with doxycycline alone, or with both doxycycline and IFNG. In the second experiment, MB135iDUX4-CTD and MB135iDUX4mL1dL2 cells were used, both treated with doxycycline and IFNG, compared to these two cell lines untreated and combined as a control. Proteins with a minimum of 2 peptide spectrum matches (PSMs) in at least one sample that were identified in both experiments were assigned to one of ten categories (see Methods) to separate candidate interactors from other categories that might be co-purified because of obligate interactions (e.g., proteasome or ribosome) or might be less likely to be physiologically relevant (e.g., cytoskeletal proteins). Candidate interactors were then ranked based on the total PSMs for that protein across all samples.
# Centrifugation at 2500 rcf at 4° C. for 5 min pelleted the nuclei, supernatant was discarded, and nuclei resuspended in 1 mL IP buffer pH 7.4 (25 mM Tris-HCl pH 7.5, 175 mM NaCl, 1 mM EDTA, 0.2% NP-40, 5% glycerol) and incubated for 1 hour at 4° C. with rotation then spun at 21000 rcf for 10 minutes at 4° C. to pellet insoluble debris. Protein concentration was determined using the Pierce BCA Protein Assay Kit (ThermoFisher, 23225). An equivalent amount of protein per sample was pre-cleared with Dynabeads Protein G (Invitrogen) bound to mouse IgG (Abcam #131368) for 1 hour at 4° C. with rotation. FLAG-tagged constructs were then immunoprecipitated with Dynabeads Protein G beads coupled to mouse anti-FLAG M2 mAb (Sigma F3165) for 3 hours at 4° C. with rotation. Beads were washed 3× with 1 mL IP buffer and eluted by adding 2× NuPage LDS Sample Buffer (Thermo Fisher, diluted from 4× with PBS) to the beads and heating for 10 minutes at 70° C.
# For LC-MS, anti-FLAG immunoprecipitation was performed with beads cross-linked to the anti-FLAG antibody and the proteins competitively eluted with FLAG peptide. Eluted protein samples were electrophoresed into a NuPage 4-12% Bis-Tris gel, excised, and processed by the Fred Hutchinson Cancer Research Center Proteomics Core. Samples were reduced, alkylated, digested with trypsin, desalted, and run on the Orbitrap Eclipse Tribid Mass Spectrometer (Thermo Fisher). Proteomics data were analyzed using Proteome Discoverer 2.4 against a Uniprot human database that included common contaminants using Sequest HT and Percolator for scoring. […] Proteins that were identified in at least one sample from both independent experiments with at least 2 PSMs in one sample were assigned to one of ten categories: 1, candidates; 2, cytoskeletal associated; 3, cytoskeletal; 4, ribosome/translation associated; 5, proteasome associated; 6, membrane or extracellular; ER, golgi, or vesicle associated; 8, lipid metabolism; 9, chaperones; 10, nuclear import or nuclear membrane associated. The proteins in category 1 were further investigated for interactions with DUX4.
substance,measurement,value
"longCTD: 3×FLAG tag and nls in frame with carboxyterminal 271 amino acids of DUX4 (aa154-424), SEQ ID NOS: 8-9",candidate interacting proteins,"STAT1 and DDX3X, two key regulators of innate immune signaling, ranked at the top of the list; also recorded: validated the DUX4-CTD interactions with DDX3X, STAT1, PRKDC, YBX1, HNRNPM, PABPC1, NCL, CDK4, and HNRPU"

# — patent US20250339531A1, “DUX4 POLYPEPTIDES AND NUCLEIC ACIDS FOR TREATING INFLAMMATORY AND AUTOIMMUNE CONDITIONS” (Fred Hutchinson Cancer Center, priority 2021, published 2025)
